Legend:
Bcl-2 = experiment: ELISA of Bcl-2 level in MCF-7 cells; type: cell-based, human; settings: for fold decrease of Bcl-2 level: MCF-7, vs control; for Bcl-2: MCF-7 cells treated at IC50, 48 h, control 4.65 ± 0.23
Description: (§1) Homogeneously, both conjugates were able to decrease the level of the anti-apoptotic Bcl-2 protein by 2.12-, and 1.7-fold, respectively (Table 3). As a more analytical variable, the Bax/Bcl-2 ratio was verified to be amplified by conjugates 6e and 6f, 18- and 12-fold, respectively.
(§2) Assessment of the levels for the proapoptotic markers (Bax, caspase-3, and p53) as well as the antiapoptotic marker (Bcl-2) was carried out through the use of ELISA colorimetric kits in accordance with the manufacturer’s instructions, as mentioned earlier. In addition, the pro-apoptotic potential of indoles 6e and 6f towards MCF-7 cells was evaluated through an FITC Annexin V apoptosis detection kit by flow cytometry, in accordance with the manufacturer’s protocol and referring to the reported procedures.
(§3) The levels of the pro-apoptotic markers (Bax, caspase-3 and p53) as well as the anti-apoptotic marker Bcl-2 were determined using ELISA colorimetric kits per the manufacturer’s instructions. Breast cancer MCF-7 cells were cultured as a monolayer in T-25 flasks and were seeded to attain 30% confluency prior to treatment. Cells were then […]
(§4) of treatment, cells were collected via trypsinization and centrifuged at 10,000 rpm. The pellet was then rinsed with PBS and lysed in RIPA lysis buffer at 4 °C for 45 min, then centrifuged at 14,000 rpm for 20 min to remove the cellular debris. Lysates were then collected and stored at −80 °C for later protein determination using Pierce BCA Protein Assay Kit according to manufacturer’s recommendations.
(§5) The cell lysate was diluted 10 times, and 100 μL ([…]) was added to the wells of four separate microtiter plates for the four ELISA kits that were pre-coated with primary antibodies specific to Bax, Bcl-2, caspase-3 and p53 proteins, respectively. A secondary biotin-linked antibody specific to the protein captured by the primary antibody was further added to bind the captured protein, forming a “sandwich” of specific antibodies around the desired protein in the cell lysate. The streptavidin-HRP complex was then used to bind the biotin-linked secondary antibody through its streptavidin portion. The HRP domain reacted with the added TMB substrate to form a colored product that measured at 450 nm by a plate reader ChroMate-4300 after the reaction was terminated via the addition of stop solution. […]
(§6) Cells were then rinsed in binding buffer and resuspended in 150
(§7) μL of binding buffer with the addition of 1 μL of DAPI (1 μg/μL in PBS). […]

CDK2 = target: T1, CDK2 (Homo sapiens, UniProt P24941); experiment: CDK2 kinase inhibition (Reaction Biology HotSpot); type: biochemical; settings: single dose of 20 µM; read-out: % Enzyme Inhibitory Activity CDK2
T1 construct: purchased Reaction Biology Corp. (Kinase HotSpot service)
Text: (§8) 5. CDK Kinase Inhibitory Activity
(§9) along with required cofactors.
(§10) Kinase activity data were
(§11) (dimethyl sulfoxide) reactions.

p53 = experiment: ELISA of p53 level in MCF-7 cells; type: cell-based, human; settings: for fold increase of p53 level: MCF-7, as compared to the control; for p53: MCF-7 cells treated at IC50, 48 h, control 41.26 ± 2.7
Description: (§12) In addition, their influence on the level of caspase-3 and p53 was estimated in the MCF-7 cell line.
as §2, §3, §4, §5, §6, §7

caspase-3 = experiment: ELISA of active caspase-3 level in MCF-7 cells; type: cell-based, human; settings: for fold increase of caspase-3 level: MCF-7, in comparison to the control; for Caspase-3: active caspase-3, MCF-7 cells treated at IC50, 48 h, control 35.92 ± 1.8
Description: as §12, §2, §3, §4, §5, §6, §7

CDK9 = CDK9 (Homo sapiens, UniProt P50750); experiment: CDK9 kinase inhibition (Reaction Biology HotSpot); settings: read-out: % Enzyme Inhibitory Activity CDK9
Description: The in vitro CDK kinase inhibition assay was performed by Reaction Biology Corp. (PA, USA) (http://www.reactionbiology.com) Kinase HotSpotSM service.
Reaction Biology Corp. Kinase HotSpotSM service (http://www.reactionbiology.com)
was used for screening of tested compounds. CDK Kinase inhibitory activities were
assessed by the HotSpot assay platform, which contained specific kinase/substrate pairs
along with required cofactors. Base reaction buffer: 20 mM Hepes (pH 7.5), 10 mM MgCl2,
Testing compounds were dissolved in 100% DMSO to specific concentration. The serial
dilution was conducted by Integra Viaflo Assist in DMSO. The reaction mixture containing the examined compound and 33P-ATP was incubated at room temperature for
2 h and radioactivity was detected by filter-binding method. Kinase activity data were
expressed as the percent remaining kinase activity in test samples compared to vehicle

CDK4 = target: T2, CDK4 (Homo sapiens, UniProt P11802); experiment: CDK4 kinase inhibition (Reaction Biology HotSpot); type: biochemical; settings: for inhibition at 20 µM: single dose of 20 µM
T2 construct: purchased Reaction Biology Corp. (Kinase HotSpot service)
Text: as §8, §9, §10, §11

Bax/Bcl-2 = Bax/Bcl-2 ratio in MCF-7 cells; type: cell-based, human; settings: for fold increase of Bax/Bcl-2 ratio: MCF-7, vs control; for Bax/Bcl-2: MCF-7 cells treated at IC50, control 8.2
Description: as §1, §2, §3, §4, §5, §6, §7

MCF-7 cells = experiment: Cell cycle analysis by flow cytometry (PI); type: cell-based, human; settings: for fold elevation in sub-G1 phase / fold increase of cells in G2/M phase: MCF-7, in comparison to the control (DMSO); for %Sub-G1 / %G2/M / %S / %G0–G1: MCF-7 cells treated at IC50, 24 h; for %Sub-G1: control 1.37; for %G2/M: control 14.73; for %S: control 27.45; for %G0–G1: control 56.45
Description: Most of the cytotoxic agents wield their anti-proliferative effect by arresting the cell cycle at some checkpoints. Cell cycle analysis employs flow cytometry to distinguish cells within the different cell cycle phases. […] MCF-7 cells were treated by the IC50 of the two conjugates and their impact on the cell population was recorded. […] This was accompanied by discernible escalation in the proportion of cells in the G2/M phase by 2.80- and 2.46-fold with concomitant elevation in the sub-G1 phase by 17.8 and 16.25-fold, respectively, in comparison to the control (DMSO). […]
The two examined human breast cancer cell lines (MCF-7 and Breast MDA-MB-231) have been obtained from American Type Culture Collection (ATCC). The cells were maintained in Dulbecco's modified Eagle's medium (DMEM) supplemented with 10% heat inactivated fetal calf serum (GIBCO), penicillin (100 U/ml) and streptomycin (100 µg/ml) at 37 °C in humidified atmosphere containing 5% CO2. Cells at a concentration of 0.50 x 106 were grown in a 25 cm2 flask in 5 ml of culture medium. […]
Breast cancer MCF-7 cells were treated with hybrids 6e and 6f for 24 h (at their IC50 concentration), and then cells were washed twice with ice-cold phosphate buffered saline (PBS). Subsequently, the treated cells were collected by centrifugation, fixed in ice-cold 70% (v/v) ethanol, washed with PBS, re-suspended with 100 μg/mL RNase, stained with 40 μg/mL PI, and analyzed by flow cytometry using FACS Calibur (Becton Dickinson, BD, Franklin Lakes, NJ, USA). The cell cycle distributions were calculated using CellQuest software 5.1 (Becton Dickinson).

T2 sequence (P11802 whole entry): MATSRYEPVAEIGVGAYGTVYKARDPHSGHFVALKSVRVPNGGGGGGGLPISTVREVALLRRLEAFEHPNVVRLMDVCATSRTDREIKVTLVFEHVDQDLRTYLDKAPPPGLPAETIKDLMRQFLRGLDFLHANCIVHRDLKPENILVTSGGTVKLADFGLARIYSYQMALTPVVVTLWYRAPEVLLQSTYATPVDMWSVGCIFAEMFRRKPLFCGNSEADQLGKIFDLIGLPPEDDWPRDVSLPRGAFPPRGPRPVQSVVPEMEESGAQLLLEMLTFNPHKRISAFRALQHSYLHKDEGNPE
T2 sequence (P24385 whole entry partner): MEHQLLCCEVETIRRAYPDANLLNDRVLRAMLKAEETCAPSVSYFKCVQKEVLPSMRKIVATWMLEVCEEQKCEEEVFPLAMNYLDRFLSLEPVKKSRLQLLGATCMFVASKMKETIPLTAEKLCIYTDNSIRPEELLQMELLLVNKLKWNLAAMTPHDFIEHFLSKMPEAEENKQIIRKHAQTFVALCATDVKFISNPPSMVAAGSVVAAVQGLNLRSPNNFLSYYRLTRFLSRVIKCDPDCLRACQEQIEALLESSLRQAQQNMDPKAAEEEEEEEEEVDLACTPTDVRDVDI
Sequence of CDK9 (P50750 whole entry): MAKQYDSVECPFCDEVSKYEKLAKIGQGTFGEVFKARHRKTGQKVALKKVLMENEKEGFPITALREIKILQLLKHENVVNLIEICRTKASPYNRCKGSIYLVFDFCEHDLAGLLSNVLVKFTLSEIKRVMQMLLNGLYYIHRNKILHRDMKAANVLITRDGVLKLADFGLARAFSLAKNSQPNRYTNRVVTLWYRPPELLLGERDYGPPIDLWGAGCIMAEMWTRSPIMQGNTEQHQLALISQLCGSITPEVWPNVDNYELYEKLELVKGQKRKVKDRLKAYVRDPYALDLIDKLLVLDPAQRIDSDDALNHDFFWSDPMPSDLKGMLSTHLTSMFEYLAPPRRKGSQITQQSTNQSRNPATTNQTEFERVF
Sequence of CDK9 (O60563 whole entry partner): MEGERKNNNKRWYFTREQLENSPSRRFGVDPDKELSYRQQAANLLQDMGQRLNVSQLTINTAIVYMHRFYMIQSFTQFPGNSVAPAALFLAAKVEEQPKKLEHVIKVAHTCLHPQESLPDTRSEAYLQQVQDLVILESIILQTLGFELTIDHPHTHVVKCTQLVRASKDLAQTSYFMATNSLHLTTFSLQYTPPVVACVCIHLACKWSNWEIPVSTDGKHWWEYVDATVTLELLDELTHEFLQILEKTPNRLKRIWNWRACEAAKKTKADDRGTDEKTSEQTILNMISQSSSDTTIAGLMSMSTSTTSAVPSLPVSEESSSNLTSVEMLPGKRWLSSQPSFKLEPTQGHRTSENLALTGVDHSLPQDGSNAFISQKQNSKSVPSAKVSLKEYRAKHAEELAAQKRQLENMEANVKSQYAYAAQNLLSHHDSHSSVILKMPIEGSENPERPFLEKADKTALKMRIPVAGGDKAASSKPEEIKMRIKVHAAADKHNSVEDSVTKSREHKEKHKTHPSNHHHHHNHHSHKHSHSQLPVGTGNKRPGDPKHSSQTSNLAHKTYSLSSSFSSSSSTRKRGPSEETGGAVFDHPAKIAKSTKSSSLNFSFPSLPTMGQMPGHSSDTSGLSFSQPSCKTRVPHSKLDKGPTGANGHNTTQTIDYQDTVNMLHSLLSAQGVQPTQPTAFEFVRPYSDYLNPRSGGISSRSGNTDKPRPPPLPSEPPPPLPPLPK

Row | inhibition at 20 µM (CDK2) [%] | inhibition at 20 µM (CDK9) [%] | IC50 (CDK4) [nM] | inhibition at 20 µM (CDK4) [%] | SMILES | fold decrease of Bcl-2 level (Bcl-2) [fold] | Bcl-2 (Bcl-2) | fold increase of p53 level (p53) [fold] | p53 (p53) [pg/mg] | fold increase of caspase-3 level (caspase-3) [fold] | Caspase-3 (caspase-3) [pg/mg] | fold increase of Bax/Bcl-2 ratio (Bax/Bcl-2) [fold] | Bax/Bcl-2 (Bax/Bcl-2) | fold elevation in sub-G1 phase (MCF-7 cells) [fold] | fold increase of cells in G2/M phase (MCF-7 cells) [fold] | %Sub-G1 (MCF-7 cells) [%] | %G2/M (MCF-7 cells) [%] | %S (MCF-7 cells) [%] | %G0–G1 (MCF-7 cells) [%]
1 | ≥ 50 | 18 | 1260 | 93 | Cc1ccc2c(c1)/C(=N/NC(=O)c1cc3ccccc3[nH]1)C(=O)N2 [6e] | 2.12 | 2.19 ± 0.10 ng/mg of Total Protein | 17 | 704.39 ± 32.8 | 11.45 | 411.70 ± 12.3 | 18 | 148.5 | 17.8 | 2.80 | 24.49 | 41.47 | 14.81 | 19.23
2 | ≥ 50 | 8 | – | 14 | COc1ccc2c(c1)/C(=N/NC(=O)c1cc3ccccc3[nH]1)C(=O)N2 [6f] | 1.7 | 2.73 ± 0.13 ng/mg of Total Protein | 13.3 | 547.60 ± 29.5 | 10.1 | 364.15 ± 14.8 | 12 | 98.6 | 16.25 | 2.46 | 22.26 | 36.26 | 19.29 | 22.19

From paper PMC7248897, “Synthesis, Biological Evaluation and In Silico Studies of Certain Oxindole–Indole Conjugates as Anticancer CDK Inhibitors” (Molecules, 2020)
